These are literature values, as cited in US6258550A, “Polypeptides that include conformation-constraining groups which flank a protein-protein interaction site” (Virginia Commonwealth University, priority 1999, dated 2001).

Where a SMILES comes first, the peptide text is derived from it.

The test system of this data set is receptors of sweet tasting papillae. The following applies: comparison sweetener.

`COC(=O)[C@H](Cc1ccccc1)NC(=O)[C@@H](N)CC(=O)O` [aspartame] (H-Asp-Phe-OMe): the “Sweetness relative to sugar” value is listed as 160 times sweeter than sugar.
